According to patent US20260224716A1, “PTH ANALOGS FOR THE TREATMENT OF HYPOPARATHYROIDISM” (priority 2020, published 2026):

How the values were obtained:
PTHR1 = target: T1, PTHR1 (Homo sapiens, UniProt Q03431); assay: cAMP Hunter Teriparatide Bioassay (CHO-K1 PTHR1 cells); type: cell-based
T1 construct: host or cells: CHO-K1
T1 sequence (Q03431 27-593): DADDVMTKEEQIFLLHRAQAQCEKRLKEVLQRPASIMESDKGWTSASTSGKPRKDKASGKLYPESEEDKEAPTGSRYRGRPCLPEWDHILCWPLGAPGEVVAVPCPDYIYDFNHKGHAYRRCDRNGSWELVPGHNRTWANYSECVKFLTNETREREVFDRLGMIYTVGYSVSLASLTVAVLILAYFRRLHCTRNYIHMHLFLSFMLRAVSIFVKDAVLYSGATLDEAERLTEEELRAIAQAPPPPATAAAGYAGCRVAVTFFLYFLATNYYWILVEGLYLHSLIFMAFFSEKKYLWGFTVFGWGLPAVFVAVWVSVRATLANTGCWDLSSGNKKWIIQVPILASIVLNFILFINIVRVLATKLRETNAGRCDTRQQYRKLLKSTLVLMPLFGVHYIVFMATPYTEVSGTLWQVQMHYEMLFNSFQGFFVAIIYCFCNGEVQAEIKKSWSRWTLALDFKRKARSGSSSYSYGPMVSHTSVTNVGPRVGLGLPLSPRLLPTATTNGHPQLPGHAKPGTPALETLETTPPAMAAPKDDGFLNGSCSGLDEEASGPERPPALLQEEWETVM
Description: The assessment of the bioactivity of a prodrug relative to its drug form was conducted in a proprietary commercial assay as contracted with Eurofins-Discover Rx Corporation win a cAMP Hunter® Teriparatide Bioassay (95-0118Y2). An 11-point dose curve in agonist mode was conducted for each individual peptide or incubation condition. Every sample was run at each dose in triplicate.
An 11-point dose curve in agonist mode was conducted for each individual peptide or incubation condition. Every sample was run at each dose in triplicate.
An 11-point dose curve in agonist mode was conducted for each individual peptide at each concentration. Every sample was run at each dose in triplicate.

[1] = Pharmacokinetics of SEQ ID 87 in monkeys, single subcutaneous dose (Example 17); type: in vivo, cynomolgus monkeys; conditions: FIGS. 26A, 26B
Description: A total of three monkeys were used at each test dose. The monkeys ranged in age from 2-4 years old at beginning of the study and having a weight of at least 2.5 kg. The dose volume was 0.3 mL/kg. Individual dose volumes were calculated based on the animals' most recently recorded body weight.
Animals were not fasted prior to collection. Blood was be collected via the femoral vein (or another appropriate site). Blood samples were maintained at 5±3° C. (wet ice or equivalent) and centrifuged at 5±3° C. within 1 hour of the collection of each blood sample. The resultant plasma was transferred to a tube and then stored under conditions set to maintain −75±15° C. until analysis.
Pharmacokinetic mean concentration-time data was analyzed using non-compartmental methods (Phoenix® WinNonlin® Version 7.0 or higher) based on the route of administration. The following parameters were calculated whenever possible and as data allows: Cmax, Tmax, and AUC. Descriptive statistics were generated using Phoenix WinNonlin.

[2] = Plasma drug levels in rats, repeat daily dosing 7 days, LCMS (Example 13); type: in vivo, Sprague-Dawley rats
Description: Female Sprague-Dawley rats were single or double-housed and randomly assigned to four groups (n=5-6 per group) as described in Table 20, and then weighed.
After the treatment ceased, the animals were monitored on days 9 and 11 (washout period).
Body weight and food intake were measured on days 0, 1, 3, 5 and 7. Ca was measured on days 0, 1, 2, 3, 4, 7, 9 and 11. Pi was determined on the same samples, except for days 9 and 11.

With `CC[C@H](C)[C@H](NC(=O)[C@H](CCC(=O)O)NC(=O)[C@H](CO)NC(=O)[C@@H](NC(=O)[C@H](CO)NC(=O)CN(C)C(=O)[C@H](N)CCCCNC(=O)CC[C@H](NC(=O)COCCOCCNC(=O)COCCOCCNC(=O)CC[C@H](NC(=O)CCCCCCCCCCCCCCCCC(=O)O)C(=O)O)C(=O)O)C(C)C)C(=O)N[C@@H](CCC(N)=O)C(=O)N[C@@H](CC(C)C)C(=O)N[C@@H](CCSC)C(=O)N[C@@H](Cc1c[nH]cn1)C(=O)N[C@@H](CC(N)=O)C(=O)N[C@@H](CC(C)C)C(=O)NCC(=O)N[C@@H](CCCCN)C(=O)N[C@@H](Cc1c[nH]cn1)C(=O)N[C@@H](CC(C)C)C(=O)N[C@@H](CC(N)=O)C(=O)N[C@@H](CO)C(=O)N[C@@H](CCSC)C(=O)N[C@@H](CCC(=O)O)C(=O)N[C@@H](CCCNC(=N)N)C(=O)N[C@H](C(=O)N[C@@H](CCC(=O)O)C(=O)N[C@@H](Cc1c[nH]c2ccccc12)C(=O)N[C@@H](CC(C)C)C(=O)N[C@@H](CCCNC(=N)N)C(=O)N[C@@H](CCCCN)C(=O)N[C@@H](CCCCN)C(=O)N[C@@H](CC(C)C)C(=O)N[C@@H](CCC(N)=O)C(=O)N[C@@H](CC(=O)O)C(=O)N[C@H](C(=O)N[C@@H](Cc1c[nH]cn1)C(=O)N[C@@H](CCCCNC(=O)CC[C@H](NC(=O)COCCOCCNC(=O)COCCOCCNC(=O)CC[C@H](NC(=O)CCCCCCCCCCCCCCCCC(=O)O)C(=O)O)C(=O)O)C(=O)O)C(C)C)C(C)C` [SEQ ID NO: 87] as the molecule, how does the Hillslope (PTHR1; FIG. 11, prodrug incubated in PBS 1 day) read?
The Hillslope was 1.421.

What about the Hillslope (PTHR1; FIG. 11, prodrug incubated in PBS 2 day) of the same molecule?
The Hillslope was 2.102.

What about the Hillslope (PTHR1; FIG. 11, prodrug incubated in PBS 3 day) of the same molecule?
Its Hillslope is 1.825.

And the Hillslope (PTHR1; FIG. 11, prodrug incubated in PBS 5 day)?
Its Hillslope is 2.102.

And the Hillslope (PTHR1; FIG. 11, prodrug incubated in PBS 8 day)?
The Hillslope was 2.172.

What about the “PTH agonism” value (PTHR1; conclusions from Table 14, FIGS. 8A-8C) of the same molecule?
The value was “full PTH agonist of high nM potency”.

What about the “difference of prodrug to drug serum concentration” value [1] of the same molecule?
The value was roughly 4 fold.

And the “daily administrations to reach steady state plasma levels” value ([2]; daily SC dosing)?
The value was “four”.

What about the “difference in total concentration of prodrug to drug” value ([2]; seven daily SC injections, FIGS. 19A, 19B) of the same molecule?
Its value is 4 fold.
